# Reference: paper PMC11012124, “Synthesis of Novel Triazine-Based Chalcones and 8,9-dihydro-7H-pyrimido[4,5-b][1,4]diazepines as Potential Leads in the Search of Anticancer, Antibacterial and Antifungal Agents” (International Journal of Molecular Sciences, 2024)
# Experiments:
# Assay in all cases: cells
# CCRF-CEM = details: Homo sapiens, 48 h; for CC50: read-out: LC50
# HL-60(TB) = details: Homo sapiens, HL-60, 48 h; for CC50: read-out: LC50
# K-562 = details: Homo sapiens, K562, 48 h; for GI50: K-562, 48 h
# MOLT-4 = details: Homo sapiens, MOLT-4, 48 h; for CC50: read-out: LC50
# A549/ATCC = details: Homo sapiens, A549, 48 h; for CC50: read-out: LC50
# EKVX = details: Homo sapiens, 48 h; for CC50: read-out: LC50
# HOP-92 = details: Homo sapiens, HOP-92, 48 h; for CC50: read-out: LC50
# NCI-H460 = details: Homo sapiens, NCI-H460, 48 h; for CC50: read-out: LC50
# NCI-H522 = details: Homo sapiens, NCI-H522, 48 h; for CC50: read-out: LC50
# COLO 205 = details: Homo sapiens, COLO 205, 48 h; for CC50: read-out: LC50
# HCC-2998 = details: Homo sapiens, HCC 2998, 48 h; for CC50: read-out: LC50
# HCT-116 = details: Homo sapiens, HCT-116, 48 h; for CC50: read-out: LC50
# HT29 = details: Homo sapiens, HT-29, 48 h; for CC50: read-out: LC50
# KM12 = details: Homo sapiens, KM12, 48 h; for CC50: read-out: LC50
# SF-268 = details: Homo sapiens, SF-268, 48 h; for CC50: read-out: LC50
# SF-539 = details: Homo sapiens, SF-539, 48 h; for CC50: read-out: LC50, SF-539, 48 h
# SNB-19 = details: Homo sapiens, SNB-19, 48 h; for CC50: read-out: LC50
# SNB-75 = details: Homo sapiens, SNB-75, 48 h; for CC50: read-out: LC50
# U251 = details: Homo sapiens, U-251, 48 h; for GI50: U251, 48 h; for CC50: read-out: LC50
# LOX IMVI = details: Homo sapiens, 48 h; for CC50: read-out: LC50, LOX IMVI, 48 h
# M14 = details: Homo sapiens, M14, 48 h; for CC50: read-out: LC50
# SK-MEL-2 = details: Homo sapiens, SK-MEL-2, 48 h; for CC50: read-out: LC50
# SK-MEL-28 = details: Homo sapiens, SK-MEL-28, 48 h; for CC50: read-out: LC50
# SK-MEL-5 = details: Homo sapiens, SK-MEL-5, 48 h; for CC50: read-out: LC50
# UACC-257 = details: Homo sapiens, UACC-257, 48 h; for CC50: read-out: LC50
# UACC-62 = details: Homo sapiens, UACC-62, 48 h; for CC50: read-out: LC50
# OVCAR-3 = details: Homo sapiens, OVCAR-3, 48 h; for CC50: read-out: LC50
# 786-0 = details: Homo sapiens, 786-0, 48 h; for CC50: read-out: LC50
# A498 = details: Homo sapiens, A498, 48 h; for CC50: read-out: LC50
# CAKI-1 = details: Homo sapiens, CAKI-1, 48 h; for CC50: read-out: LC50
# SN12C = details: Homo sapiens, 48 h; for CC50: read-out: LC50
# UO-31 = details: Homo sapiens, UO-31, 48 h; for CC50: read-out: LC50
# PC-3 = details: Homo sapiens, PC-3, 48 h; for CC50: read-out: LC50
# MDA-MB-231/ATCC = details: Homo sapiens, MDA-MB-231, 48 h; for CC50: read-out: LC50
# HS 578T = details: Homo sapiens, 48 h; for CC50: read-out: LC50
# T-47D = details: Homo sapiens, T47D, 48 h; for CC50: read-out: LC50
# MDA-MB-468 = details: Homo sapiens, MDA-MB-468, 48 h; for CC50: read-out: LC50
smiles,measurement,setting,value
COc1cc(/C=C/C(=O)c2ccccc2)ccc1Oc1nc(Nc2ccc(F)cc2)nc(N(C)C)n1 [21a],GI50,CCRF-CEM,3.38 µM
same,CC50,CCRF-CEM,> 100 µM
same,GI50,HL-60(TB),8.37 µM
same,CC50,HL-60(TB),> 100 µM
same,GI50,K-562,3.57 µM
same,CC50,K-562; read-out: LC50,> 100 µM
same,GI50,MOLT-4,2.56 µM
same,CC50,MOLT-4,> 100 µM
same,GI50,A549/ATCC,11.7 µM
same,CC50,A549/ATCC,> 100 µM
same,GI50,EKVX,4.73 µM
same,CC50,EKVX,> 100 µM
same,GI50,HOP-92,2.08 µM
same,CC50,HOP-92,> 100 µM
same,GI50,NCI-H460,9.14 µM
same,CC50,NCI-H460,93.2 µM
same,GI50,NCI-H522,5.15 µM
same,CC50,NCI-H522,> 100 µM
same,GI50,COLO 205,15.1 µM
same,CC50,COLO 205,> 100 µM
same,GI50,HCC-2998,12.9 µM
same,CC50,HCC-2998,> 100 µM
same,GI50,HCT-116,3.21 µM
same,CC50,HCT-116,45.5 µM
same,GI50,HT29,4.36 µM
same,CC50,HT29,59.7 µM
same,GI50,KM12,14.9 µM
same,CC50,KM12,> 100 µM
same,GI50,SF-268,12.2 µM
same,CC50,SF-268,> 100 µM
same,GI50,SF-539,13.8 µM
same,CC50,SF-539,51.7 µM
same,GI50,SNB-19,10.2 µM
same,CC50,SNB-19,74.9 µM
same,GI50,SNB-75,4.7 µM
same,CC50,SNB-75,> 100 µM
same,GI50,U251,2.84 µM
same,CC50,U251,60.6 µM
same,GI50,LOX IMVI,1.6 µM
same,CC50,LOX IMVI,6.23 µM
same,GI50,M14,13 µM
same,CC50,M14,> 100 µM
same,GI50,SK-MEL-2,4.68 µM
same,CC50,SK-MEL-2,63.1 µM
same,GI50,SK-MEL-28,12.2 µM
same,CC50,SK-MEL-28,84.6 µM
same,GI50,SK-MEL-5,6.21 µM
same,CC50,SK-MEL-5,> 100 µM
same,GI50,UACC-257,6.44 µM
same,CC50,UACC-257,> 100 µM
same,GI50,UACC-62,4.99 µM
same,CC50,UACC-62,79.4 µM
same,GI50,OVCAR-3,11.8 µM
same,CC50,OVCAR-3,> 100 µM
same,GI50,786-0,20.5 µM
same,CC50,786-0,> 100 µM
same,GI50,A498,27 µM
same,CC50,A498,> 100 µM
same,GI50,CAKI-1,5.72 µM
same,CC50,CAKI-1,> 100 µM
same,GI50,SN12C,7.32 µM
same,CC50,SN12C,54.5 µM
same,GI50,UO-31,4.4 µM
same,CC50,UO-31,> 100 µM
same,GI50,PC-3,10 µM
same,CC50,PC-3,> 100 µM
same,GI50,MDA-MB-231/ATCC,6.92 µM
same,CC50,MDA-MB-231/ATCC,56.1 µM
same,GI50,HS 578T,5.44 µM
same,CC50,HS 578T,> 100 µM
same,GI50,T-47D,3.36 µM
same,CC50,T-47D,> 100 µM
same,GI50,MDA-MB-468,3.21 µM
same,CC50,MDA-MB-468,> 100 µM
Cc1ccc(C2CC(c3ccc(S(=O)(=O)NCCNc4nc(Nc5ccc(F)cc5)nc(N(C)C)n4)cc3)=Nc3c(N)nc(N)nc3N2)cc1 (stereo not drawn) [31b],GI50,CCRF-CEM,2.81 µM
same,CC50,CCRF-CEM,> 100 µM
same,GI50,HL-60(TB),2.94 µM
same,CC50,HL-60(TB),20.2 µM
same,GI50,K-562,2.75 µM
same,GI50,MOLT-4,2.2 µM
same,CC50,MOLT-4,7.53 µM
same,GI50,A549/ATCC,> 100 µM
same,CC50,A549/ATCC,> 100 µM
same,GI50,EKVX,5.84 µM
same,CC50,EKVX,> 100 µM
same,GI50,HOP-92,2.54 µM
same,CC50,HOP-92,21 µM
same,GI50,NCI-H460,4.76 µM
same,CC50,NCI-H460,> 100 µM
same,GI50,NCI-H522,21.3 µM
same,CC50,NCI-H522,> 100 µM
same,GI50,COLO 205,11.5 µM
same,CC50,COLO 205,> 100 µM
same,GI50,HCC-2998,2.93 µM
same,CC50,HCC-2998,41.1 µM
same,GI50,HCT-116,3.81 µM
same,CC50,HCT-116,> 100 µM
same,GI50,HT29,2.27 µM
same,CC50,HT29,4.65 µM
same,GI50,KM12,4.56 µM
same,CC50,KM12,> 100 µM
same,GI50,SF-268,7.53 µM
same,CC50,SF-268,> 100 µM
same,GI50,SF-539,3.29 µM
same,CC50,SF-539,78.9 µM
same,GI50,SNB-19,13.1 µM
same,CC50,SNB-19,> 100 µM
same,GI50,SNB-75,> 100 µM
same,CC50,SNB-75,> 100 µM
same,GI50,U251,7.08 µM
same,CC50,U251,> 100 µM
same,GI50,LOX IMVI,2.09 µM
same,CC50,LOX IMVI,5.11 µM
same,GI50,M14,4.56 µM
same,CC50,M14,> 100 µM
same,GI50,SK-MEL-2,11.2 µM
same,CC50,SK-MEL-2,77.7 µM
same,GI50,SK-MEL-28,26.9 µM
same,CC50,SK-MEL-28,> 100 µM
same,GI50,SK-MEL-5,4.98 µM
same,CC50,SK-MEL-5,20.6 µM
same,GI50,UACC-257,26 µM
same,CC50,UACC-257,> 100 µM
same,GI50,UACC-62,20.9 µM
same,CC50,UACC-62,> 100 µM
same,GI50,OVCAR-3,9.93 µM
same,CC50,OVCAR-3,> 100 µM
same,GI50,786-0,7.06 µM
same,CC50,786-0,> 100 µM
same,GI50,A498,> 100 µM
same,CC50,A498,> 100 µM
same,GI50,CAKI-1,8.06 µM
same,CC50,CAKI-1,> 100 µM
same,GI50,SN12C,> 100 µM
same,CC50,SN12C,> 100 µM
same,GI50,UO-31,> 100 µM
same,CC50,UO-31,> 100 µM
same,GI50,PC-3,3.33 µM
same,CC50,PC-3,> 100 µM
same,GI50,MDA-MB-231/ATCC,3.86 µM
same,CC50,MDA-MB-231/ATCC,> 100 µM
same,GI50,HS 578T,19.4 µM
same,CC50,HS 578T,> 100 µM
same,GI50,T-47D,8.75 µM
same,CC50,T-47D,> 100 µM
same,GI50,MDA-MB-468,2.72 µM
same,CC50,MDA-MB-468,8.52 µM
